Source: paper PMC7311426, “An amphipathic peptide with antibiotic activity against multidrug-resistant Gram-negative bacteria” (Nature Communications, 2020)
Values after ≈ are worked out from the molar mass of the structure shown.

Legend:
Test in all cases: microbe, parasite or virus in culture
[1] = tested on: E. coli
Method in brief: (§1)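 Broth microdilution in MHB, 2-fold 12-point series from 128 or 64 down to 0.06 or 0.03 μg mL^−1, 5 × 10^5 CFU mL^−1. Extra runs in CAMHB per CLSI and in MHB with 1% agarose; n ≥ 6.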

[2] = tested on: K. pneumoniae
Method in brief: as §1

[3] = tested on: P. aeruginosa
Method in brief: as §1

CN(C)c1cc(NC(=O)CNC(C)(C)C)c(O)c2c1C[C@H]1C[C@H]3[C@H](N(C)C)C(O)=C(C(N)=O)C(=O)[C@@]3(O)C(O)=C1C2=O [TIG]
MIC, broth microdilution ([1]; E. coli AUD172 parent strain not exposed to drug): 0.12 µg/mL (≈ 0.205 µM)
MIC, broth microdilution ([1]; E. coli AUD172 spontaneous mutant, AA139 selection 4X, plate 2, colony 2, drug-free passage 1): 0.12 µg/mL (≈ 0.205 µM)
MIC, broth microdilution ([1]; E. coli AUD172 spontaneous mutant, AA139 selection 4X, plate 2, colony 2, drug-free passage 5): 0.5 µg/mL (≈ 0.854 µM)
MIC, broth microdilution ([2]; K. pneumoniae 3010 parent strain not exposed to drug): 0.5 µg/mL (≈ 0.854 µM)
MIC, broth microdilution ([2]; K. pneumoniae 3010 spontaneous mutant, AA139 selection 4X, plate 1, colony 1, drug-free passage 1): 0.5, 0.5 µg/mL
MIC, broth microdilution ([2]; K. pneumoniae 3010 spontaneous mutant, AA139 selection 4X, plate 1, colony 1, drug-free passage 5): 0.5, 0.5 µg/mL
MIC, broth microdilution ([2]; K. pneumoniae 3010 spontaneous mutant, AA139 selection 8X, plate 1, colony 1, drug-free passage 1): 0.5, 0.5 µg/mL
MIC, broth microdilution ([2]; K. pneumoniae 3010 spontaneous mutant, AA139 selection 8X, plate 1, colony 1, drug-free passage 5): 0.5, 0.5 µg/mL
MIC, broth microdilution ([2]; K. pneumoniae ST258 parent strain not exposed to drug): 0.5 µg/mL (≈ 0.854 µM)
MIC, broth microdilution ([2]; K. pneumoniae ST258 spontaneous mutant, AA139 selection 4X, plate 1, colony 1, drug-free passage 1): 0.5, 0.5 µg/mL
MIC, broth microdilution ([2]; K. pneumoniae ST258 spontaneous mutant, AA139 selection 4X, plate 1, colony 1, drug-free passage 5): 0.5, 0.5 µg/mL
MIC, broth microdilution ([3]; P. aeruginosa ATCC 27853 parent strain not exposed to drug): 8 µg/mL (≈ 13.7 µM)
MIC, broth microdilution ([3]; P. aeruginosa ATCC 27853 spontaneous mutant, AA139 selection 4X, plate 1, colony 1, drug-free passage 1): 8, 8 µg/mL
MIC, broth microdilution ([3]; P. aeruginosa ATCC 27853 spontaneous mutant, AA139 selection 4X, plate 1, colony 1, drug-free passage 5): 8, 8 µg/mL
MIC, broth microdilution ([3]; P. aeruginosa ATCC 27853 spontaneous mutant, AA139 selection 4X, plate 1, colony 2, drug-free passage 1): 8, 8 µg/mL
MIC, broth microdilution ([3]; P. aeruginosa ATCC 27853 spontaneous mutant, AA139 selection 4X, plate 1, colony 2, drug-free passage 5): 8, 8 µg/mL
MIC, broth microdilution ([3]; P. aeruginosa ATCC 27853 spontaneous mutant, AA139 selection 4X, plate 1, colony 3, drug-free passage 1): 8, 8 µg/mL
MIC, broth microdilution ([3]; P. aeruginosa ATCC 27853 spontaneous mutant, AA139 selection 4X, plate 1, colony 3, drug-free passage 5): 8, 8 µg/mL
MIC, broth microdilution ([3]; P. aeruginosa ATCC 27853 spontaneous mutant, AA139 selection 4X, plate 1, colony 4, drug-free passage 1): 8, 8 µg/mL
MIC, broth microdilution ([3]; P. aeruginosa ATCC 27853 spontaneous mutant, AA139 selection 4X, plate 1, colony 4, drug-free passage 5): 8, 8 µg/mL
MIC, broth microdilution ([3]; P. aeruginosa ATCC 27853 spontaneous mutant, AA139 selection 4X, plate 1, colony 5, drug-free passage 1): 16, 16 µg/mL
MIC, broth microdilution ([3]; P. aeruginosa ATCC 27853 spontaneous mutant, AA139 selection 4X, plate 1, colony 5, drug-free passage 5): 16, 16 µg/mL
MIC, broth microdilution ([3]; P. aeruginosa ATCC 27853 spontaneous mutant, AA139 selection 4X, plate 1, colony 6, drug-free passage 1): 8, 8 µg/mL
MIC, broth microdilution ([3]; P. aeruginosa ATCC 27853 spontaneous mutant, AA139 selection 4X, plate 1, colony 6, drug-free passage 5): 8, 8 µg/mL
MIC, broth microdilution ([3]; P. aeruginosa ATCC 27853 spontaneous mutant, AA139 selection 4X, plate 2, colony 1, drug-free passage 1): 8, 8 µg/mL
MIC, broth microdilution ([3]; P. aeruginosa ATCC 27853 spontaneous mutant, AA139 selection 4X, plate 2, colony 1, drug-free passage 5): 8, 8 µg/mL
MIC, broth microdilution ([3]; P. aeruginosa ATCC 27853 spontaneous mutant, AA139 selection 4X, plate 2, colony 2, drug-free passage 1): 8, 8 µg/mL
MIC, broth microdilution ([3]; P. aeruginosa ATCC 27853 spontaneous mutant, AA139 selection 4X, plate 2, colony 2, drug-free passage 5): 8, 8 µg/mL
MIC, broth microdilution ([3]; P. aeruginosa ATCC 27853 spontaneous mutant, AA139 selection 4X, plate 2, colony 3, drug-free passage 1): 8, 8 µg/mL
MIC, broth microdilution ([3]; P. aeruginosa ATCC 27853 spontaneous mutant, AA139 selection 4X, plate 2, colony 3, drug-free passage 5): 8, 8 µg/mL
MIC, broth microdilution ([3]; P. aeruginosa ATCC 27853 spontaneous mutant, AA139 selection 4X, plate 2, colony 4, drug-free passage 1): 8, 8 µg/mL
MIC, broth microdilution ([3]; P. aeruginosa ATCC 27853 spontaneous mutant, AA139 selection 4X, plate 2, colony 4, drug-free passage 5): 8, 8 µg/mL
MIC, broth microdilution ([3]; P. aeruginosa ATCC 27853 spontaneous mutant, AA139 selection 8X, plate 1, colony 1, drug-free passage 1): 8, 8 µg/mL
MIC, broth microdilution ([3]; P. aeruginosa ATCC 27853 spontaneous mutant, AA139 selection 8X, plate 1, colony 1, drug-free passage 5): 8, 8 µg/mL
MIC, broth microdilution ([3]; P. aeruginosa ATCC 27853 spontaneous mutant, AA139 selection 8X, plate 1, colony 2, drug-free passage 1): 8, 8 µg/mL
MIC, broth microdilution ([3]; P. aeruginosa ATCC 27853 spontaneous mutant, AA139 selection 8X, plate 1, colony 2, drug-free passage 5): 8, 8 µg/mL
MIC, broth microdilution ([3]; P. aeruginosa ATCC 27853 spontaneous mutant, AA139 selection 8X, plate 1, colony 3, drug-free passage 1): 8, 8 µg/mL
MIC, broth microdilution ([3]; P. aeruginosa ATCC 27853 spontaneous mutant, AA139 selection 8X, plate 1, colony 3, drug-free passage 5): 8, 8 µg/mL
MIC, broth microdilution ([3]; P. aeruginosa ATCC 27853 spontaneous mutant, AA139 selection 8X, plate 1, colony 4, drug-free passage 1): 8, 8 µg/mL
MIC, broth microdilution ([3]; P. aeruginosa ATCC 27853 spontaneous mutant, AA139 selection 8X, plate 1, colony 4, drug-free passage 5): 8, 8 µg/mL
MIC, broth microdilution ([3]; P. aeruginosa ATCC 27853 spontaneous mutant, AA139 selection 8X, plate 1, colony 5, drug-free passage 1): 8, 8 µg/mL
MIC, broth microdilution ([3]; P. aeruginosa ATCC 27853 spontaneous mutant, AA139 selection 8X, plate 1, colony 5, drug-free passage 5): 8, 8 µg/mL
MIC, broth microdilution ([3]; P. aeruginosa UNT 138-1 parent strain not exposed to drug): 8 µg/mL (≈ 13.7 µM)
MIC, broth microdilution ([3]; P. aeruginosa UNT 138-1 spontaneous mutant, AA139 selection 4X, plate 1, colony 1, drug-free passage 1): 16, 16 µg/mL
MIC, broth microdilution ([3]; P. aeruginosa UNT 138-1 spontaneous mutant, AA139 selection 4X, plate 1, colony 1, drug-free passage 5): 16, 16 µg/mL
MIC, broth microdilution ([3]; P. aeruginosa UNT 138-1 spontaneous mutant, AA139 selection 4X, plate 1, colony 2, drug-free passage 1): 16, 16 µg/mL
MIC, broth microdilution ([3]; P. aeruginosa UNT 138-1 spontaneous mutant, AA139 selection 4X, plate 1, colony 2, drug-free passage 5): 16, 16 µg/mL
MIC, broth microdilution ([3]; P. aeruginosa UNT 138-1 spontaneous mutant, AA139 selection 4X, plate 1, colony 3, drug-free passage 1): 16, 16 µg/mL
MIC, broth microdilution ([3]; P. aeruginosa UNT 138-1 spontaneous mutant, AA139 selection 4X, plate 1, colony 3, drug-free passage 5): 16, 16 µg/mL
MIC, broth microdilution ([3]; P. aeruginosa UNT 138-1 spontaneous mutant, AA139 selection 4X, plate 1, colony 4, drug-free passage 1): 16, 16 µg/mL
MIC, broth microdilution ([3]; P. aeruginosa UNT 138-1 spontaneous mutant, AA139 selection 4X, plate 1, colony 4, drug-free passage 5): 16, 16 µg/mL
MIC, broth microdilution ([3]; P. aeruginosa UNT 138-1 spontaneous mutant, AA139 selection 4X, plate 1, colony 5, drug-free passage 1): 16, 16 µg/mL
MIC, broth microdilution ([3]; P. aeruginosa UNT 138-1 spontaneous mutant, AA139 selection 4X, plate 1, colony 5, drug-free passage 5): 16, 16 µg/mL
MIC, broth microdilution ([3]; P. aeruginosa UNT 138-1 spontaneous mutant, AA139 selection 4X, plate 1, colony 6, drug-free passage 1): 16, 16 µg/mL
MIC, broth microdilution ([3]; P. aeruginosa UNT 138-1 spontaneous mutant, AA139 selection 4X, plate 1, colony 6, drug-free passage 5): 16, 16 µg/mL
MIC, broth microdilution ([3]; P. aeruginosa UNT 138-1 spontaneous mutant, AA139 selection 4X, plate 1, colony 7, drug-free passage 1): 16, 16 µg/mL
MIC, broth microdilution ([3]; P. aeruginosa UNT 138-1 spontaneous mutant, AA139 selection 4X, plate 1, colony 7, drug-free passage 5): 16, 16 µg/mL
MIC, broth microdilution ([3]; P. aeruginosa UNT 138-1 spontaneous mutant, AA139 selection 4X, plate 2, colony 1, drug-free passage 1): 16, 16 µg/mL
MIC, broth microdilution ([3]; P. aeruginosa UNT 138-1 spontaneous mutant, AA139 selection 4X, plate 2, colony 1, drug-free passage 5): 16, 16 µg/mL
MIC, broth microdilution ([3]; P. aeruginosa UNT 138-1 spontaneous mutant, AA139 selection 4X, plate 2, colony 2, drug-free passage 1): 16, 16 µg/mL
MIC, broth microdilution ([3]; P. aeruginosa UNT 138-1 spontaneous mutant, AA139 selection 4X, plate 2, colony 2, drug-free passage 5): 16, 16 µg/mL
MIC, broth microdilution ([3]; P. aeruginosa UNT 138-1 spontaneous mutant, AA139 selection 4X, plate 2, colony 3, drug-free passage 1): 16, 16 µg/mL
MIC, broth microdilution ([3]; P. aeruginosa UNT 138-1 spontaneous mutant, AA139 selection 4X, plate 2, colony 3, drug-free passage 5): 16, 16 µg/mL
MIC, broth microdilution ([3]; P. aeruginosa UNT 138-1 spontaneous mutant, AA139 selection 4X, plate 2, colony 4, drug-free passage 1): 16, 16 µg/mL
MIC, broth microdilution ([3]; P. aeruginosa UNT 138-1 spontaneous mutant, AA139 selection 4X, plate 2, colony 4, drug-free passage 5): 16, 16 µg/mL
MIC, broth microdilution ([3]; P. aeruginosa UNT 138-1 spontaneous mutant, AA139 selection 4X, plate 2, colony 5, drug-free passage 1): 16, 16 µg/mL
MIC, broth microdilution ([3]; P. aeruginosa UNT 138-1 spontaneous mutant, AA139 selection 4X, plate 2, colony 5, drug-free passage 5): 16, 16 µg/mL
MIC, broth microdilution ([3]; P. aeruginosa UNT 138-1 spontaneous mutant, AA139 selection 4X, plate 2, colony 6, drug-free passage 1): 16, 16 µg/mL
MIC, broth microdilution ([3]; P. aeruginosa UNT 138-1 spontaneous mutant, AA139 selection 4X, plate 2, colony 6, drug-free passage 5): 16, 16 µg/mL
MIC, broth microdilution ([3]; P. aeruginosa UNT 138-1 spontaneous mutant, AA139 selection 4X, plate 2, colony 7, drug-free passage 1): 8 µg/mL (≈ 13.7 µM)
MIC, broth microdilution ([3]; P. aeruginosa UNT 138-1 spontaneous mutant, AA139 selection 4X, plate 2, colony 7, drug-free passage 5): 16 µg/mL (≈ 27.3 µM)
MIC, broth microdilution ([3]; P. aeruginosa UNT 138-1 spontaneous mutant, AA139 selection 8X, plate 1, colony 1, drug-free passage 1): 8 µg/mL (≈ 13.7 µM)
MIC, broth microdilution ([3]; P. aeruginosa UNT 138-1 spontaneous mutant, AA139 selection 8X, plate 1, colony 1, drug-free passage 5): 16 µg/mL (≈ 27.3 µM)
MIC, broth microdilution ([3]; P. aeruginosa UNT 138-1 spontaneous mutant, AA139 selection 8X, plate 1, colony 2, drug-free passage 1): 8 µg/mL (≈ 13.7 µM)
MIC, broth microdilution ([3]; P. aeruginosa UNT 138-1 spontaneous mutant, AA139 selection 8X, plate 1, colony 2, drug-free passage 5): 16 µg/mL (≈ 27.3 µM)
MIC, broth microdilution ([3]; P. aeruginosa UNT 138-1 spontaneous mutant, AA139 selection 8X, plate 1, colony 3, drug-free passage 1): 8 µg/mL (≈ 13.7 µM)
MIC, broth microdilution ([3]; P. aeruginosa UNT 138-1 spontaneous mutant, AA139 selection 8X, plate 1, colony 3, drug-free passage 5): 16 µg/mL (≈ 27.3 µM)
MIC, broth microdilution ([3]; P. aeruginosa UNT 138-1 spontaneous mutant, AA139 selection 8X, plate 1, colony 4, drug-free passage 1): 8 µg/mL (≈ 13.7 µM)
MIC, broth microdilution ([3]; P. aeruginosa UNT 138-1 spontaneous mutant, AA139 selection 8X, plate 1, colony 4, drug-free passage 5): 16 µg/mL (≈ 27.3 µM)
MIC, broth microdilution ([3]; P. aeruginosa UNT 138-1 spontaneous mutant, AA139 selection 8X, plate 1, colony 5, drug-free passage 1): 16, 16 µg/mL
MIC, broth microdilution ([3]; P. aeruginosa UNT 138-1 spontaneous mutant, AA139 selection 8X, plate 1, colony 5, drug-free passage 5): 16, 16 µg/mL
MIC, broth microdilution ([3]; P. aeruginosa UNT 138-1 spontaneous mutant, AA139 selection 8X, plate 2, colony 1, drug-free passage 1): 16, 16 µg/mL
MIC, broth microdilution ([3]; P. aeruginosa UNT 138-1 spontaneous mutant, AA139 selection 8X, plate 2, colony 1, drug-free passage 5): 16, 16 µg/mL
